From US20050014696A1, “Additive cytoprotective effects of two bioactive regions of pro-opiomelanocortin hormone” (priority 2001, published 2005)

Tested on: 96% ethanol induced gastric lesions
Experiment: 96% ethanol induced gastric lesions cytoprotection model
Assay type: in vivo, male Wistar rats
Details: 8 animals, mean±standard deviation, saline control 255.5±78.1, p<0.05 compared to controls
Experimental: Bioactive peptide fragments SYSMEHFRWGKPV and YGGFM were tested individually and in combination, by means of the standard cytoprotection model of the 96% ethanol induced gastric lesions in male Wistar rats (6, 7). In the control group of 8 animals treated with physiological saline the area of gastric lesions was 255.5±78.1 mm^2 (mean±standard deviation, FIG. 1) (7). In the group of 8 animals treated with the combination of peptides SYSMEHFRWGKPV (1 mg/kg) and YGGFM (10 mg/kg) the area of gastric lesions was 0.3±0.7 mm^2 (p<0.05 compared to controls, FIG. 1) (7). In the group of 8 animals treated with peptide SYSMEHFRWGKPV (1 mg/kg) the area of gastric lesions was 5.9±8 mm^2 (p<0.05 compared to controls, FIG. 1) (7). In the group of 8 animals treated with peptide YGGFM (10 mg/kg) the area of gastric lesions was 139.4±36.1 mm^2 (p<0.05 compared to controls, FIG. 1) (7). The combination of peptides SYSMEHFRWGKPV and YGGFM that provided best cytoprotective effect is patented under the name KOMET.
FIG. 1 defines the cytoprotective effects of the bioactive peptide fragments SYSMEHFRWGKPV and YGGFM of the pro-opiomelanocortin molecule, and their combination KOMET, in the model of the ethanol induced gastric lesions in rats.
FIG. 1. […]

| Substance | area of gastric lesions (1 mg/kg) | area of gastric lesions (10 mg/kg) |
| --- | --- | --- |
| SYSMEHFRWGKPV | 5.9±8 mm^2 |  |
| YGGFM |  | 139.4±36.1 mm^2 |
